Bounds are passed on as bounds.

The first assay concerns the target T1, USP28 (His-tagged USP28-FL-mammalian) (Homo sapiens, UniProt Q96RU2).
T1 construct: Expression of USP28 (1-1077)-TEV-6*His (pTT5 vector); made in house; host or cells: Expi293f cells (pTT5 vector)
T1 sequence (Q96RU2 1-1077): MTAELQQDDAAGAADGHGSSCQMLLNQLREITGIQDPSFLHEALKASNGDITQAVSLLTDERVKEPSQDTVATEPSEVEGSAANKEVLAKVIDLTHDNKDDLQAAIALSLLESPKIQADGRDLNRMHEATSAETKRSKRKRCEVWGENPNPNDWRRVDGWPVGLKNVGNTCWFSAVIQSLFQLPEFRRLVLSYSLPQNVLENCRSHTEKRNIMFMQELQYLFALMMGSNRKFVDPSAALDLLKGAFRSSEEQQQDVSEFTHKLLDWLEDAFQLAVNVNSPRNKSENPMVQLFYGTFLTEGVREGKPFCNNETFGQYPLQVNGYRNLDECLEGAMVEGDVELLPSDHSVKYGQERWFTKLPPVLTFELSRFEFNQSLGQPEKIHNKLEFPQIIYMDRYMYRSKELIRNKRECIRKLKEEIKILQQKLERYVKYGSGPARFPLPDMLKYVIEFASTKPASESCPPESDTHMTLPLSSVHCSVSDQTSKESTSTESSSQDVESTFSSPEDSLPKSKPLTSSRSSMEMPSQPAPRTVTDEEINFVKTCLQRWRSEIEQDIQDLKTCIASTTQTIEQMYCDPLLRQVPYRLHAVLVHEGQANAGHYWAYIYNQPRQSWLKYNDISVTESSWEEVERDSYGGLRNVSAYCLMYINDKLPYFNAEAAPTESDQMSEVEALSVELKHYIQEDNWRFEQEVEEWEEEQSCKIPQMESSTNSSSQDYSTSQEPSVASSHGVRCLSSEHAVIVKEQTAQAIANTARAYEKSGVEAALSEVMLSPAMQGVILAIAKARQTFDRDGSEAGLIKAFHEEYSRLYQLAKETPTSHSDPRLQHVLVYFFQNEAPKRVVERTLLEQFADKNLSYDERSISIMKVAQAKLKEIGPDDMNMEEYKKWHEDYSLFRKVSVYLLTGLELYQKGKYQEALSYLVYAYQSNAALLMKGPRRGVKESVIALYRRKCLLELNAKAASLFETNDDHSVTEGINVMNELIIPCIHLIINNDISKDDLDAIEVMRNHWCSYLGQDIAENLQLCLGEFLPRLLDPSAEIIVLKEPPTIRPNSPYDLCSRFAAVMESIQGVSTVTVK
As to the kind of experiment: Ubiquitin-Rhodamine 110 Assay for USP28 Activity, Example A-1(a). The format is biochemical. Conditions: Ub-Rh110 assay, Example A-1(a); read-out: USP28 A-1(a) IC50 range. An outline of the steps:
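Full-length His-tagged human USP28 (1-1077, Expi293f-expressed), […], with 25 nM Ub-Rh110 (<<Km) in pH 8.0 Tris buffer with BME, BGG, Triton X-100. 10-point dilutions (25 μM-1.3 nM), 45 min at room temperature, citric acid stop, fluorescence 485/535 nm; IC50 by 4-parameter fit.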
As for `Cc1nc2sc(C(=O)N[C@H]3COc4cc(N5CCNCC5)ccc4C3)c(N)c2cc1F` (single isomer, unassigned) [Example 1-15], the IC50 lay within 1 to 50 nM.
Still for that read-out and setting: next, `Cc1nc2sc(C(=O)N[C@H]3COc4cc(N5CC6CCCC(C5)N6)ccc4C3)c(N)c2s1` [Example 2-27]: 1 to 50 nM.
In the case of `Cc1ccc2c(N)c(C(=O)N[C@H]3COc4cc(N5CCNCC5)ccc4C3)sc2n1` (single isomer, unassigned) [Example 1-1], the IC50 was 1 to 50 nM.
Same read-out and setting: the value for `Cc1nc2sc(C(=O)N[C@@H]3COc4cc(N5CCNCC5)ccc4C3)c(N)c2cc1F` (single isomer, unassigned) [Example 1-16] was 200 to 2000 nM; that for `Cc1ccc2c(N)c(C(=O)N[C@H]3COc4cc(N5CCN[C@@H](C)C5)ccc4C3)sc2n1` [Example 2-8, 3-amino-6-methyl-N-((R)-7-((S)-3-methylpiperazin-1-yl)chroman-3-yl)thieno[2,3-b]pyridine-2-carboxamide] was 1 to 50 nM.
For the compound `Cc1ccc2c(N)c(C(=O)N[C@H]3COc4cc(N5CCC[C@@](N)(C(F)(F)F)C5)ccc4C3)sc2n1` (single isomer, unassigned) [Example 3-3], the IC50 lay in the range of 1 to 50 nM.
In the case of `Cc1ccc2c(N)c(C(=O)N[C@H]3COc4cc(N5CCNC[C@H]5C)ccc4C3)sc2n1` [Example 2-5, 3-amino-6-methyl-N-((R)-7-((R)-2-methylpiperazin-1-yl)chroman-3-yl)thieno[2,3-b]pyridine-2-carboxamide], the IC50 was in the range of 1 to 50 nM.
The same measure, in the same setting: the value for `CCn1ccc2cc(C(=O)N[C@@H]3COc4cc(N5CC6CCC(C5)N6)ccc4C3)cnc21` (single isomer, unassigned) [Example 1-27] was 200 to 2000 nM; that for `O=C(N[C@H]1COc2cc(N3CC4CCC(C3)N4)ccc2C1)c1ccc(NCc2ccccc2)nc1` [Example 2-25, N-((3R)-7-(3,8-diazabicyclo[3.2.1]octan-3-yl)chroman-3-yl)-6-(benzylamino)nicotinamide] was 50 to 200 nM; that for `Cc1ccc2c(N)c(C(=O)N[C@@H]3COc4cc(N5CC6CCC(C5)N6)ccc4C3)sc2n1` (single isomer, unassigned) [Example 1-4] was 200 to 2000 nM.
Take `Cc1ccc2c(N)c(C(=O)N[C@H]3COc4cc(N5CCNCC5)c(F)cc4C3)sc2n1` [Example 1-35, (R)-3-amino-N-(6-fluoro-7-(piperazin-1-yl)chroman-3-yl)-6-methylthieno[2,3-b]pyridine-2-carboxamide]: the IC50 was in the range of 1 to 50 nM.
The same measure, in the same setting: the value for `Cc1cnc2c(N)c(C(=O)N[C@@H]3COc4cc(N5CCNCC5)ccc4C3)sc2n1` (single isomer, unassigned) [Example 1-22] was 200 to 2000 nM.
With `Cc1ccc2c(N)c(C(=O)N[C@H]3COc4cc(N5CCNCC5)c(OC(F)(F)F)cc4C3)sc2n1` (single isomer, unassigned) [Example 1-31], the IC50 lay within 200 to 2000 nM.
Consider `Cc1nc2sc(C(=O)N[C@@H]3COc4cc(N5CCNCC5)ccc4C3)c(N)c2s1` [Example 1-26, (S)-6-amino-2-methyl-N-(7-(piperazin-1-yl)chroman-3-yl)thieno[2,3-d]thiazole-5-carboxamide], for which the IC50 fell in the range of 200 to 2000 nM.
As for `Cc1ccc2c(N)c(C(=O)N[C@@H]3COc4cc(N5CCN[C@H](C)[C@H]5C)ccc4C3)sc2n1` (single isomer, unassigned) [Example 1-12], the IC50 lay in the range of 1 to 50 nM.
Same read-out and setting: next, `CCn1ccc2cc(C(=O)N[C@H]3COc4cc(N5CC6CCC(C5)N6)ccc4C3)cnc21` (single isomer, unassigned) [Example 1-28]: 1 to 50 nM; `Cc1cnc2c(N)c(C(=O)N[C@H]3COc4cc(N5CC6CC(C5)N6)ccc4C3)sc2n1` [Example 2-11, N-((3R)-7-(3,6-diazabicyclo[3.1.1]heptan-3-yl)chroman-3-yl)-7-amino-3-methylthieno[2,3-b]pyrazine-6-carboxamide]: 1 to 50 nM; `Cc1cnc2c(N)c(C(=O)N[C@H]3COc4cc(N5CCNCC5)ccc4C3)sc2n1` (single isomer, unassigned) [Example 1-21]: 1 to 50 nM.
Regarding `Cc1nc2sc(C(=O)N[C@H]3COc4cc(N5CCNCC5)cc(F)c4C3)c(N)c2s1` (single isomer, unassigned) [Example 1-37], the IC50 is > 2000 nM.
The same measure, in the same setting: the value for `Cc1nc2sc(C(=O)N[C@H]3COc4cc(N5CC6CCC(C5)N6)ccc4C3)c(N)c2s1` [Example 1-23, N-((3R)-7-(3,8-diazabicyclo[3.2.1]octan-3-yl)chroman-3-yl)-6-amino-2-methylthieno[2,3-d]thiazole-5-carboxamide] was 1 to 50 nM.
Same read-out and setting: the value for `Nc1c(C(=O)N[C@@H]2COc3cc(N4CC5CCC(C4)N5)ccc3C2)sc2ncc(F)cc12` (single isomer, unassigned) [Example 1-18] was > 2000 nM; that for `Cc1ccc2c(N)c(C(=O)N[C@H]3COc4cc(N5CCN[C@@H](C)[C@@H]5C)ccc4C3)sc2n1` (single isomer, unassigned) [Example 1-13] was 50 to 200 nM; that for `Cc1ccc2c(N)c(C(=O)N[C@@H]3COc4c(ccc(N5CCNCC5)c4F)C3)sc2n1` [Example 1-34, (S)-3-amino-N-(8-fluoro-7-(piperazin-1-yl)chroman-3-yl)-6-methylthieno[2,3-b]pyridine-2-carboxamide] was 200 to 2000 nM.
On the same count and under the same terms, the value for `Cc1ccc2c(N)c(C(=O)N[C@H]3COc4cc(N5CCCC56CNC6)ccc4C3)sc2n1` [Example 2-7, (R)-N-(7-(2,5-diazaspiro[3.4]octan-5-yl)chroman-3-yl)-3-amino-6-methylthieno[2,3-b]pyridine-2-carboxamide] was 1 to 50 nM; that for `Cc1cnc2c(N)c(C(=O)N[C@H]3CCc4cc(N5CCNCC5)c(C)cc4C3)sc2n1` (single isomer, unassigned) [Example 2-34] was 50 to 200 nM.
Regarding `Cc1nc2sc(C(=O)N[C@H]3COc4cc(N5CCNCC5)ccc4C3)c(N)c2s1` [Example 1-25, (R)-6-amino-2-methyl-N-(7-(piperazin-1-yl)chroman-3-yl)thieno[2,3-d]thiazole-5-carboxamide], the half-maximal inhibitory concentration (IC50) lay in the range of 1 to 50 nM.
On the same count and under the same terms, next, `Cc1ccc2c(N)c(C(=O)N[C@H]3COc4cc(N5CC6CC(C5)N6)cc(F)c4C3)sc2n1` (single isomer, unassigned) [Example 1-42]: 200 to 2000 nM.
In the case of `Cc1ccc2c(N)c(C(=O)N[C@H]3COc4c(ccc(N5CCNCC5)c4F)C3)sc2n1` [Example 1-33, (R)-3-amino-N-(8-fluoro-7-(piperazin-1-yl)chroman-3-yl)-6-methylthieno[2,3-b]pyridine-2-carboxamide], the half-inhibitory concentration (IC50) was 1 to 50 nM.
In the case of `Cc1nc2sc(C(=O)N[C@@H]3COc4cc(N5CC6CCC(C5)N6)ccc4C3)c(N)c2s1` [Example 1-24, N-((3S)-7-(3,8-diazabicyclo[3.2.1]octan-3-yl)chroman-3-yl)-6-amino-2-methylthieno[2,3-d]thiazole-5-carboxamide], the IC50 was 200 to 2000 nM.
Turning to `Nc1c(C(=O)N[C@H]2COc3cc(N4CC5CCC(C4)N5)ccc3C2)sc2ncc(F)cc12` (single isomer, unassigned) [Example 1-17], the IC50 is 50 to 200 nM.

The assay is the same for the next values; noted with them: Ubiquitin-Rhodamine 110 assay, Example A-1(a); read-out: USP28 A-1(a) IC50 range.
As to `Cc1cnc2c(N)c(C(=O)N[C@H]3CCc4nc(N5CCNCC5)ccc4C3)sc2n1` [Example 23-6, 7-amino-3-methyl-N-[(6S)-2-(piperazin-1-yl)-5,6,7,8-tetrahydroquinolin-6-yl]thieno[2,3-b]pyrazine-6-carboxamide], the IC50 lay in the range of 50 to 200 nM.

For the origin of these results see patent US11524966B1 (Valo Early Discovery, Inc., priority 2017, dated 2022).
